Assay results taken from article PMC5554444 (Cancer prevention research (Philadelphia, Pa.), 2011).
Where “and” joins values, the source holds several entries; their conditions need not be identical. Equal values may be shown once.

Assays:
MCF7 cells [1] = test: RT2 Profiler PCR array of 84 human cell cycle genes; format: cell-based
MCF7 breast cancer cells = test: SRB assay, anti-proliferative potential; format: cell-based; conditions: Homo sapiens, MCF7, 72 h, read-out: SRB assay IC50
MCF7 cells [2] = test: Cell cycle distribution by NIM-DAPI flow cytometry; format: cell-based, human; conditions: 2.5 μM
MCF7 cells [3] = test: Western blot of p53 and p21 protein; format: cell-based, human; conditions: 1 μM, 8, 24 and 48 h
[4] = Caco-2 cell monolayer permeability; format: in vitro ADME; conditions: human, Caco-2, pH 7.4
Caco-2 cell monolayer = Caco-2 cell monolayer permeability; format: in vitro ADME; conditions: Caco-2
[5] = Absorption and distribution in rats after gavage; format: in vivo, rat; conditions: 40 mg/kg by gavage, 3 h after first treatment, individual rats; listed as AM6-36
[6] = test system: MNU-induced mammary tumors; test: MNU-induced mammary tumor growth in Sprague-Dawley rats; format: in vivo, rat; conditions: 10 mg/kg BW/day, six weeks, 10 rats/group, p = 0.1 Mann-Whitney
human RXRα = target: T1, human RXRα (Homo sapiens, UniProt P19793); conditions: COS-1 cells, 24 h
T1 sequence (P19793 1-462): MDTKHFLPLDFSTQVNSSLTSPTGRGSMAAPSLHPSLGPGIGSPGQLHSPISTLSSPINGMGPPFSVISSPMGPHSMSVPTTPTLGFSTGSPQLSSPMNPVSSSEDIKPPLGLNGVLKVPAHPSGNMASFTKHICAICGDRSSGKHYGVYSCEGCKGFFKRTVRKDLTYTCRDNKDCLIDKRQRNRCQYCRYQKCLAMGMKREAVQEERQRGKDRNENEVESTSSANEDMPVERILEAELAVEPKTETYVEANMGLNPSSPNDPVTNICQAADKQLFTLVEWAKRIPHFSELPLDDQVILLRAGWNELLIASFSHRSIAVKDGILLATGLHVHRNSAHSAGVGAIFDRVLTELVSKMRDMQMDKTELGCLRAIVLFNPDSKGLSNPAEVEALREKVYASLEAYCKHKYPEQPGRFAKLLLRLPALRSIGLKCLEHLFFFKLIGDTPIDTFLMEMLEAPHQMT

HL-60 cells = test: Expression of cell surface marker CD38 by flow cytometry; format: cell-based, human

## C=C(c1ccc(C(=O)O)cc1)c1cc2c(cc1C)C(C)(C)CCC2(C)C [Bexarotene, reference compound]
MCF7 cells [1]; 24 h, AM6-36 1 μM, bexarotene 100 μM, P <0.05
  Number of genes out of 84 with significantly altered expression: 9

## CC[C@@]1(O)C(=O)OCc2c1cc1n(c2=O)Cc2cc3ccccc3nc2-1 [Camptothecin]
MCF7 breast cancer cells
  IC50: 1.41 nM

## Cl.Cl.NCCCn1c2c(c3ccc(N)cc3c1=O)C(=O)c1ccccc1-2 [Compound 3, 3-amino-6-(3-aminopropyl)-5,6-dihydro-5,11-dioxo-11H-indeno[1,2-c]isoquinoline dihydrochloride]
MCF7 cells [2]
  Cell cycle distribution: S phase arrest
MCF7 cells [1]; DNA microarray analysis
  Up-regulation of CDKN1A expression: 35 fold
MCF7 cells [3]
  p21 protein expression: moderate increase at 8 h, and incremental expression was observed at 24 and 48 h
  p53 protein level: increase of p53 at 8 h, followed by decreases at 24 and 48 h
[4]
  Papp A→B at 5 µM: 2.75 ± 0.78 ×10⁻⁶ cm/s
  Papp A→B at 10 µM: 5.52 ± 0.29 ×10⁻⁶ cm/s
  Papp A→B at 25 µM: 4.45 ± 0.71 ×10⁻⁶ cm/s
  Papp B→A at 5 µM: 3.95 ± 0.11 ×10⁻⁶ cm/s
  Papp B→A at 10 µM: 3.25 ± 0.71 ×10⁻⁶ cm/s
  Papp B→A at 25 µM: 8.26 ± 0.93 ×10⁻⁶ cm/s
Caco-2 cell monolayer
  Papp AP to BL, times slower than propranolol: 10 fold
[5]
  Serum 1-day: 0.84 ± 0.01 μg/ml and 2.14 μM and 0.82 ± 0.004 μg/ml and 2.09 μM
[6]
  Growth of MNU-induced mammary tumors: clearly attenuated tumor growth
Human RXRα; 20 μM
  Relative luciferase activity induction: 133.2 fold
Human RXRα; 40 μM
  RXRE assay, fold increase of relative luciferase activity over vehicle: 5.49±0.34 fold

## CC1=C(/C=C/C(C)=C\C=C\C(C)=C\C(=O)O)C(C)(C)CCC1 [Compound 9-cis-RA, 9-cis-Retinoic acid]
HL-60 cells; HL-60 cells, 2 nM
  FL-1 positive cells (CD38): 86.7%
HL-60 cells; HL-60 cells, 2000, 200, 20 nM
  CD38-expressing cell population (FL-1 positive): about 95%
